This note sets out measurements from PubChem BioAssay AID1963845 (Molecular Pharmacology Branch, DTP, NCI, 2024).
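Also: luminescence signal used as surrogate measure of viable cells; spheroids exposed to compounds for seven days before readout; 100% = DMSO vehicle control viability as luminescence relative to vehicle.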

One experiment relates to 429239-143-T-J1-PDC complex spheroid viability. As to the kind of experiment: Anticancer human tumor 429239-143-T-J1-PDC patient-derived small cell lung carcinoma cell line growth inhibition [POLQ]. The conditions noted are these: second compound 0.316 µM; first compound 0.316 µM; hits give low values. The essentials: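 Three-cell-type spheroids modelling solid tumor plus stroma served as the readout system; POL inhibitors were tested individually and in combination, concentration ranges set by clinical Cmax where known.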
The viability, T/C is the result in the treated group divided by that in the control group, in per cent. For the compound `C=CCn1c(=O)c2cnc(Nc3ccc(N4CCN(C)CC4)cc3)nc2n1-c1cccc(C(C)(C)O)n1` + Nc1ccc(C#CCN(C(=O)Cc2ncc(C(F)(F)F)cc2C(F)(F)F)c2ccc(F)cc2)nn1, the viability, T/C was 94%.
As for `CNCc1ccc(-c2[nH]c3cc(F)cc4c3c2CCNC4=O)cc1` + Nc1ccc(C#CCN(C(=O)Cc2ncc(C(F)(F)F)cc2C(F)(F)F)c2ccc(F)cc2)nn1, the viability, T/C was 98.5%.
On the same count and under the same terms, then `COc1cccc(OCCCN)c1-c1cc(Nc2cnc(C#N)cn2)n[nH]1` + Nc1ccc(C#CCN(C(=O)Cc2ncc(C(F)(F)F)cc2C(F)(F)F)c2ccc(F)cc2)nn1, with 45.4%; and `O=C(c1cc(Cc2n[nH]c(=O)c3ccccc23)ccc1F)N1CCN(C(=O)C2CC2)CC1` + Nc1ccc(C#CCN(C(=O)Cc2ncc(C(F)(F)F)cc2C(F)(F)F)c2ccc(F)cc2)nn1, with 91.3%.

The experiment is the same for the next values; noted with them: second compound 0.316 µM; first compound 1 µM; hits give low values.
On to `C=CCn1c(=O)c2cnc(Nc3ccc(N4CCN(C)CC4)cc3)nc2n1-c1cccc(C(C)(C)O)n1` + Nc1ccc(C#CCN(C(=O)Cc2ncc(C(F)(F)F)cc2C(F)(F)F)c2ccc(F)cc2)nn1, for which the viability, T/C is 15.2%.
Still for that read-out and setting: the value for `CNCc1ccc(-c2[nH]c3cc(F)cc4c3c2CCNC4=O)cc1` + Nc1ccc(C#CCN(C(=O)Cc2ncc(C(F)(F)F)cc2C(F)(F)F)c2ccc(F)cc2)nn1 was 93.5%.
Still for that read-out and setting: the value for `COc1cccc(OCCCN)c1-c1cc(Nc2cnc(C#N)cn2)n[nH]1` + Nc1ccc(C#CCN(C(=O)Cc2ncc(C(F)(F)F)cc2C(F)(F)F)c2ccc(F)cc2)nn1 was 33.6%; that for `O=C(c1cc(Cc2n[nH]c(=O)c3ccccc23)ccc1F)N1CCN(C(=O)C2CC2)CC1` + Nc1ccc(C#CCN(C(=O)Cc2ncc(C(F)(F)F)cc2C(F)(F)F)c2ccc(F)cc2)nn1 was 81.2%.

The experiment is the same for the next values; noted with them: second compound 0.316 µM; first compound 3.16 µM; hits give low values.
Take `CNCc1ccc(-c2[nH]c3cc(F)cc4c3c2CCNC4=O)cc1` + Nc1ccc(C#CCN(C(=O)Cc2ncc(C(F)(F)F)cc2C(F)(F)F)c2ccc(F)cc2)nn1: the viability, T/C is 79.4%.
As to `O=C(c1cc(Cc2n[nH]c(=O)c3ccccc23)ccc1F)N1CCN(C(=O)C2CC2)CC1` + Nc1ccc(C#CCN(C(=O)Cc2ncc(C(F)(F)F)cc2C(F)(F)F)c2ccc(F)cc2)nn1, the viability, T/C is 65.8%.

The experiment is the same for the next values; noted with them: second compound 0.316 µM; first compound 10 µM; hits give low values.
As to `CNCc1ccc(-c2[nH]c3cc(F)cc4c3c2CCNC4=O)cc1` + Nc1ccc(C#CCN(C(=O)Cc2ncc(C(F)(F)F)cc2C(F)(F)F)c2ccc(F)cc2)nn1, the viability, T/C is 30.6%.
Same read-out and setting: then `O=C(c1cc(Cc2n[nH]c(=O)c3ccccc23)ccc1F)N1CCN(C(=O)C2CC2)CC1` + Nc1ccc(C#CCN(C(=O)Cc2ncc(C(F)(F)F)cc2C(F)(F)F)c2ccc(F)cc2)nn1, with 9.12%.

The same experiment, now with this note: second compound 1 µM; first compound 0.00316 µM; hits give low values.
On to `C=CCn1c(=O)c2cnc(Nc3ccc(N4CCN(C)CC4)cc3)nc2n1-c1cccc(C(C)(C)O)n1` + Nc1ccc(C#CCN(C(=O)Cc2ncc(C(F)(F)F)cc2C(F)(F)F)c2ccc(F)cc2)nn1, for which the viability, T/C was 111%.
Take `COc1cccc(OCCCN)c1-c1cc(Nc2cnc(C#N)cn2)n[nH]1` + Nc1ccc(C#CCN(C(=O)Cc2ncc(C(F)(F)F)cc2C(F)(F)F)c2ccc(F)cc2)nn1: the viability, T/C is 102%.

The experiment is the same for the next values; noted with them: second compound 1 µM; first compound 0.01 µM; hits give low values.
For the compound `C=CCn1c(=O)c2cnc(Nc3ccc(N4CCN(C)CC4)cc3)nc2n1-c1cccc(C(C)(C)O)n1` + Nc1ccc(C#CCN(C(=O)Cc2ncc(C(F)(F)F)cc2C(F)(F)F)c2ccc(F)cc2)nn1, the viability, T/C is 109%.
`COc1cccc(OCCCN)c1-c1cc(Nc2cnc(C#N)cn2)n[nH]1` + Nc1ccc(C#CCN(C(=O)Cc2ncc(C(F)(F)F)cc2C(F)(F)F)c2ccc(F)cc2)nn1: the viability, T/C is 90.2%.

Staying with this experiment, now noted: second compound 1 µM; first compound 0.0316 µM; hits give low values.
As for `C=CCn1c(=O)c2cnc(Nc3ccc(N4CCN(C)CC4)cc3)nc2n1-c1cccc(C(C)(C)O)n1` + Nc1ccc(C#CCN(C(=O)Cc2ncc(C(F)(F)F)cc2C(F)(F)F)c2ccc(F)cc2)nn1, the viability, T/C was 97.8%.
On to `CNCc1ccc(-c2[nH]c3cc(F)cc4c3c2CCNC4=O)cc1` + Nc1ccc(C#CCN(C(=O)Cc2ncc(C(F)(F)F)cc2C(F)(F)F)c2ccc(F)cc2)nn1, for which the viability, T/C is 106%.
Take `COc1cccc(OCCCN)c1-c1cc(Nc2cnc(C#N)cn2)n[nH]1` + Nc1ccc(C#CCN(C(=O)Cc2ncc(C(F)(F)F)cc2C(F)(F)F)c2ccc(F)cc2)nn1: the viability, T/C was 83.8%.
Same read-out and setting: the value for `O=C(c1cc(Cc2n[nH]c(=O)c3ccccc23)ccc1F)N1CCN(C(=O)C2CC2)CC1` + Nc1ccc(C#CCN(C(=O)Cc2ncc(C(F)(F)F)cc2C(F)(F)F)c2ccc(F)cc2)nn1 was 105%.

The same experiment, now with this note: second compound 1 µM; first compound 0.1 µM; hits give low values.
Consider `C=CCn1c(=O)c2cnc(Nc3ccc(N4CCN(C)CC4)cc3)nc2n1-c1cccc(C(C)(C)O)n1` + Nc1ccc(C#CCN(C(=O)Cc2ncc(C(F)(F)F)cc2C(F)(F)F)c2ccc(F)cc2)nn1, for which the viability, T/C was 105%.
The same measure, in the same setting: then `CNCc1ccc(-c2[nH]c3cc(F)cc4c3c2CCNC4=O)cc1` + Nc1ccc(C#CCN(C(=O)Cc2ncc(C(F)(F)F)cc2C(F)(F)F)c2ccc(F)cc2)nn1, with 96.1%; and `COc1cccc(OCCCN)c1-c1cc(Nc2cnc(C#N)cn2)n[nH]1` + Nc1ccc(C#CCN(C(=O)Cc2ncc(C(F)(F)F)cc2C(F)(F)F)c2ccc(F)cc2)nn1, with 68.8%; and `O=C(c1cc(Cc2n[nH]c(=O)c3ccccc23)ccc1F)N1CCN(C(=O)C2CC2)CC1` + Nc1ccc(C#CCN(C(=O)Cc2ncc(C(F)(F)F)cc2C(F)(F)F)c2ccc(F)cc2)nn1, with 94.4%.

Still in this experiment, the particulars now being: second compound 1 µM; first compound 0.316 µM; hits give low values.
Turning to `C=CCn1c(=O)c2cnc(Nc3ccc(N4CCN(C)CC4)cc3)nc2n1-c1cccc(C(C)(C)O)n1` + Nc1ccc(C#CCN(C(=O)Cc2ncc(C(F)(F)F)cc2C(F)(F)F)c2ccc(F)cc2)nn1, the viability, T/C was 89.3%.
The same measure, in the same setting: the value for `CNCc1ccc(-c2[nH]c3cc(F)cc4c3c2CCNC4=O)cc1` + Nc1ccc(C#CCN(C(=O)Cc2ncc(C(F)(F)F)cc2C(F)(F)F)c2ccc(F)cc2)nn1 was 86.3%.
For the compound `COc1cccc(OCCCN)c1-c1cc(Nc2cnc(C#N)cn2)n[nH]1` + Nc1ccc(C#CCN(C(=O)Cc2ncc(C(F)(F)F)cc2C(F)(F)F)c2ccc(F)cc2)nn1, the viability, T/C was 40.3%.
As for `O=C(c1cc(Cc2n[nH]c(=O)c3ccccc23)ccc1F)N1CCN(C(=O)C2CC2)CC1` + Nc1ccc(C#CCN(C(=O)Cc2ncc(C(F)(F)F)cc2C(F)(F)F)c2ccc(F)cc2)nn1, the viability, T/C was 88.5%.

The experiment is the same for the next values; noted with them: second compound 1 µM; first compound 1 µM; hits give low values.
With `C=CCn1c(=O)c2cnc(Nc3ccc(N4CCN(C)CC4)cc3)nc2n1-c1cccc(C(C)(C)O)n1` + Nc1ccc(C#CCN(C(=O)Cc2ncc(C(F)(F)F)cc2C(F)(F)F)c2ccc(F)cc2)nn1, the viability, T/C was 14%.
On the same count and under the same terms, the value for `CNCc1ccc(-c2[nH]c3cc(F)cc4c3c2CCNC4=O)cc1` + Nc1ccc(C#CCN(C(=O)Cc2ncc(C(F)(F)F)cc2C(F)(F)F)c2ccc(F)cc2)nn1 was 84.8%.
Same read-out and setting: the value for `COc1cccc(OCCCN)c1-c1cc(Nc2cnc(C#N)cn2)n[nH]1` + Nc1ccc(C#CCN(C(=O)Cc2ncc(C(F)(F)F)cc2C(F)(F)F)c2ccc(F)cc2)nn1 was 27.1%; that for `O=C(c1cc(Cc2n[nH]c(=O)c3ccccc23)ccc1F)N1CCN(C(=O)C2CC2)CC1` + Nc1ccc(C#CCN(C(=O)Cc2ncc(C(F)(F)F)cc2C(F)(F)F)c2ccc(F)cc2)nn1 was 84.9%.

Staying with this experiment, now noted: second compound 1 µM; first compound 3.16 µM; hits give low values.
`CNCc1ccc(-c2[nH]c3cc(F)cc4c3c2CCNC4=O)cc1` + Nc1ccc(C#CCN(C(=O)Cc2ncc(C(F)(F)F)cc2C(F)(F)F)c2ccc(F)cc2)nn1: the viability, T/C is 79.3%.
Same read-out and setting: then `O=C(c1cc(Cc2n[nH]c(=O)c3ccccc23)ccc1F)N1CCN(C(=O)C2CC2)CC1` + Nc1ccc(C#CCN(C(=O)Cc2ncc(C(F)(F)F)cc2C(F)(F)F)c2ccc(F)cc2)nn1, with 64.8%.

The same experiment, now with this note: second compound 1 µM; first compound 10 µM; hits give low values.
`CNCc1ccc(-c2[nH]c3cc(F)cc4c3c2CCNC4=O)cc1` + Nc1ccc(C#CCN(C(=O)Cc2ncc(C(F)(F)F)cc2C(F)(F)F)c2ccc(F)cc2)nn1: the viability, T/C is 24%.
On the same count and under the same terms, then `O=C(c1cc(Cc2n[nH]c(=O)c3ccccc23)ccc1F)N1CCN(C(=O)C2CC2)CC1` + Nc1ccc(C#CCN(C(=O)Cc2ncc(C(F)(F)F)cc2C(F)(F)F)c2ccc(F)cc2)nn1, with 8.72%.

Still in this experiment, the particulars now being: second compound 3.16 µM; first compound 0.00316 µM; hits give low values.
Regarding `C=CCn1c(=O)c2cnc(Nc3ccc(N4CCN(C)CC4)cc3)nc2n1-c1cccc(C(C)(C)O)n1` + Nc1ccc(C#CCN(C(=O)Cc2ncc(C(F)(F)F)cc2C(F)(F)F)c2ccc(F)cc2)nn1, the viability, T/C is 109%.
For `COc1cccc(OCCCN)c1-c1cc(Nc2cnc(C#N)cn2)n[nH]1` + Nc1ccc(C#CCN(C(=O)Cc2ncc(C(F)(F)F)cc2C(F)(F)F)c2ccc(F)cc2)nn1, the viability, T/C is 105%.

The same experiment, now with this note: second compound 3.16 µM; first compound 0.01 µM; hits give low values.
In the case of `C=CCn1c(=O)c2cnc(Nc3ccc(N4CCN(C)CC4)cc3)nc2n1-c1cccc(C(C)(C)O)n1` + Nc1ccc(C#CCN(C(=O)Cc2ncc(C(F)(F)F)cc2C(F)(F)F)c2ccc(F)cc2)nn1, the viability, T/C was 101%.
With `COc1cccc(OCCCN)c1-c1cc(Nc2cnc(C#N)cn2)n[nH]1` + Nc1ccc(C#CCN(C(=O)Cc2ncc(C(F)(F)F)cc2C(F)(F)F)c2ccc(F)cc2)nn1, the viability, T/C is 89.1%.

Still in this experiment, the particulars now being: second compound 3.16 µM; first compound 0.0316 µM; hits give low values.
For `C=CCn1c(=O)c2cnc(Nc3ccc(N4CCN(C)CC4)cc3)nc2n1-c1cccc(C(C)(C)O)n1` + Nc1ccc(C#CCN(C(=O)Cc2ncc(C(F)(F)F)cc2C(F)(F)F)c2ccc(F)cc2)nn1, the viability, T/C was 100%.
In the case of `CNCc1ccc(-c2[nH]c3cc(F)cc4c3c2CCNC4=O)cc1` + Nc1ccc(C#CCN(C(=O)Cc2ncc(C(F)(F)F)cc2C(F)(F)F)c2ccc(F)cc2)nn1, the viability, T/C is 104%.
